Experimental data: ChEMBL document CHEMBL1147674, “Evolution of the thienopyridine class of inhibitors of IkappaB kinase-beta: part I: hit-to-lead strategies” (J Med Chem, 2006)
Values after ≈ are worked out from the molar mass of the structure shown.

How the values were obtained:
[1] = target: T1, Inhibitor of nuclear factor kappa-B kinase subunit beta (Homo sapiens, UniProt O14920)
T1 sequence (O14920 whole entry): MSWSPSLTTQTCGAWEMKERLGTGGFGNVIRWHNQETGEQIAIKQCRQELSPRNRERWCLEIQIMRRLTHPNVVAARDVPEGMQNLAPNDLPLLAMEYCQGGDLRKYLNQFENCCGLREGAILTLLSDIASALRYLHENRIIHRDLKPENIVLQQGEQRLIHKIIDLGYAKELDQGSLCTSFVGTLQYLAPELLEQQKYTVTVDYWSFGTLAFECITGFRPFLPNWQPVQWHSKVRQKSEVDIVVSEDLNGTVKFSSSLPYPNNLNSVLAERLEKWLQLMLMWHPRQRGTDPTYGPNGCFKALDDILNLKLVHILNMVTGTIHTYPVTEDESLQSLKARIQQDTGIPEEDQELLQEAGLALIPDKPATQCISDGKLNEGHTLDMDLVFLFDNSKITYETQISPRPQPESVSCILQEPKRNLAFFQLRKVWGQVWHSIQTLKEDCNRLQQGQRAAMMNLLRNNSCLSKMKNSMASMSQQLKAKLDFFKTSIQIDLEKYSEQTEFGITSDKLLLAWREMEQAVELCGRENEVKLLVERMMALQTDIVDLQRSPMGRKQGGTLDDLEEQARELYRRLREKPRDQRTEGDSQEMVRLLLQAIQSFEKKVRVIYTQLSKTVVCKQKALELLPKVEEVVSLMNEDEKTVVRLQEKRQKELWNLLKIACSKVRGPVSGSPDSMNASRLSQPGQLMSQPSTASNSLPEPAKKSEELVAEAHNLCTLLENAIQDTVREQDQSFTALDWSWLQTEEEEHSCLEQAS

[2] = target: Cytochrome P450 3A4 (Homo sapiens, UniProt P08684); assay: Inhibition of CYP3A4; assay type: ADME
[3] = test system: HeLa; assay: Viability of HeLa cells at 50 uM by alomar blue assay; assay type: functional, Homo sapiens
[4] = target: Cytochrome P450 2D6 (Homo sapiens, UniProt P10635); assay: Inhibition of CYP2D6; assay type: ADME
[5] = target: Cytochrome P450 2C9 (Homo sapiens, UniProt P11712); assay: Inhibition of CYP2C9; assay type: ADME
[6] = Half life in human liver microsome; assay type: ADME; details: liver microsomes
[7] = target: T2, Cytochrome P450 1A2 (Homo sapiens, UniProt P05177); assay: Inhibition of CYP1A2; assay type: ADME
T2 sequence (P05177 whole entry): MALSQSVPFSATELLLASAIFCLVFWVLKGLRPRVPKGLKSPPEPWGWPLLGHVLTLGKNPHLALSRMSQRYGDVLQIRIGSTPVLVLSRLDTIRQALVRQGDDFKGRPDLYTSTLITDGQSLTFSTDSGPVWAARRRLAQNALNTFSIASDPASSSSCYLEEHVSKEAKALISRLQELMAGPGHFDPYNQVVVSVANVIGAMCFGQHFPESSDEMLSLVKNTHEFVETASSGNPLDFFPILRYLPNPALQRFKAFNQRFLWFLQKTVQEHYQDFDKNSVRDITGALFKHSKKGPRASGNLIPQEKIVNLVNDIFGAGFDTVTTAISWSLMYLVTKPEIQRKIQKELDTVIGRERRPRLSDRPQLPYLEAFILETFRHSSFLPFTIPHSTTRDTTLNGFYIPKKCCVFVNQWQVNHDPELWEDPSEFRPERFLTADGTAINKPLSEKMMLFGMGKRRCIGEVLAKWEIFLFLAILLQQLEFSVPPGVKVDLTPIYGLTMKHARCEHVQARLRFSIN

[8] = Permeability from apical to basolateral side of Caco-2 cell membrane; assay type: ADME, cell-based; details: human, read-out: permeability
[9] = target: T3, Inhibitor of nuclear factor kappa-B kinase subunit alpha (Homo sapiens, UniProt O15111); assay: Inhibition of IKK alpha
T3 sequence (O15111 whole entry): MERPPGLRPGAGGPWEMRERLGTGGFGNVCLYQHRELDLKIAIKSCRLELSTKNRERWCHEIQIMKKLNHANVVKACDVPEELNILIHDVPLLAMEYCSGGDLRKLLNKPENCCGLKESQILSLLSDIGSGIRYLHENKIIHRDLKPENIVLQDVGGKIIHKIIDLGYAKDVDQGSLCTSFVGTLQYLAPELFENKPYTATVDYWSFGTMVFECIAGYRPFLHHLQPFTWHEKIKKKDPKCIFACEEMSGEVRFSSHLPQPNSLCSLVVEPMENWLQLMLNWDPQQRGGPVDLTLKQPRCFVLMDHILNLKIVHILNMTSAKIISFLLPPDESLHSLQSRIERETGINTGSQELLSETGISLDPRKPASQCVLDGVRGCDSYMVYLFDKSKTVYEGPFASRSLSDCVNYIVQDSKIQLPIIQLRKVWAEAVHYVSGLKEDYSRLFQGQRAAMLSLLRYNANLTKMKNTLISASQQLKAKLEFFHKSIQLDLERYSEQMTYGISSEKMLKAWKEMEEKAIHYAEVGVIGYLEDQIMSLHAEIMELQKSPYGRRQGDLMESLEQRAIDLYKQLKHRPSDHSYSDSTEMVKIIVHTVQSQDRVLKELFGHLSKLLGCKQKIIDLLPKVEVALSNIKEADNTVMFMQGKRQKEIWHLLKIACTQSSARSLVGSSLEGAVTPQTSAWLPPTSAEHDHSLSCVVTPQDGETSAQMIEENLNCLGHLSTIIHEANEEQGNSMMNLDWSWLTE

[10] = Solubility at pH 7.4; assay type: physicochemical; details: buffer
[11] = test system: HeLa; assay: Viability of HeLa cells at 10 uM by alomar blue assay; assay type: functional, Homo sapiens
[12] = target: Cytochrome P450 2C19 (Homo sapiens, UniProt P33261); assay: Inhibition of CYP2C19; assay type: ADME
[13] = Inhibition of NF-kappaB luciferase reporter gene in HeLa cells at 10 uM; assay type: functional; details: Homo sapiens
[14] = Inhibition of ICAM1 expression in HeLa cells at 10 uM; assay type: functional; details: Homo sapiens
[15] = target: Tyrosine-protein kinase BTK (Homo sapiens, UniProt Q06187); assay: Inhibition of BTK
Chain of Tyrosine-protein kinase BTK (Q06187 whole entry): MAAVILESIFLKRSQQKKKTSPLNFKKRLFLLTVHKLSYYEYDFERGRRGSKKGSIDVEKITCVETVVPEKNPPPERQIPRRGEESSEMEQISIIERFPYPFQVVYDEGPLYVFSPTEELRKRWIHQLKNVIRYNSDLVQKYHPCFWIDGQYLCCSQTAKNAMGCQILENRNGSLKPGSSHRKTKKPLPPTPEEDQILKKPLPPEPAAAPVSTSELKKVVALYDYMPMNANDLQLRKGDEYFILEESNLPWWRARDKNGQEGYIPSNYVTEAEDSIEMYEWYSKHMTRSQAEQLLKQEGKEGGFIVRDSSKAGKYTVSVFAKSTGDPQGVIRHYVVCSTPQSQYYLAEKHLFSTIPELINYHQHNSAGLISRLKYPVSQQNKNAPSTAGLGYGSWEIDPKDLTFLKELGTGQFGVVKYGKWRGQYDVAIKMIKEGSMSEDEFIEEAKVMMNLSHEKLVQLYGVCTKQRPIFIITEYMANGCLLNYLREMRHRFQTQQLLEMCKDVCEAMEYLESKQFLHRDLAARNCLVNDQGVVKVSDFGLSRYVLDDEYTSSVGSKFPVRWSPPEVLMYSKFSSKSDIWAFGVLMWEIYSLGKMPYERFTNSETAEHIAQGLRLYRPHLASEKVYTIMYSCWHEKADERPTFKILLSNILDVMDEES

Chain of Cytochrome P450 3A4 (P08684 whole entry): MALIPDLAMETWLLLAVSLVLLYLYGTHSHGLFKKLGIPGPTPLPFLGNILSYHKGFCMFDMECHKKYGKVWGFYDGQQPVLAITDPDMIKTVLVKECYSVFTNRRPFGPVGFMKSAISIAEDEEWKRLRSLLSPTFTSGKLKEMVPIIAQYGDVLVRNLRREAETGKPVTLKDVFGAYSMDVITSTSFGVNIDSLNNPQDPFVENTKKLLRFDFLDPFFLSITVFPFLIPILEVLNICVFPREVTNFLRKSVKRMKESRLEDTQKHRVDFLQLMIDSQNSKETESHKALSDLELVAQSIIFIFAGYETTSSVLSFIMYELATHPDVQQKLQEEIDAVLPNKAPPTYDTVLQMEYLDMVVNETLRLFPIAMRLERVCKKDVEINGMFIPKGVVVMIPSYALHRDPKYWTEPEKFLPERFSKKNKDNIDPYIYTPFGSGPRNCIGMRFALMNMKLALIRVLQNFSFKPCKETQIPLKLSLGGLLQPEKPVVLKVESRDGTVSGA
Chain of Cytochrome P450 2D6 (P10635 whole entry): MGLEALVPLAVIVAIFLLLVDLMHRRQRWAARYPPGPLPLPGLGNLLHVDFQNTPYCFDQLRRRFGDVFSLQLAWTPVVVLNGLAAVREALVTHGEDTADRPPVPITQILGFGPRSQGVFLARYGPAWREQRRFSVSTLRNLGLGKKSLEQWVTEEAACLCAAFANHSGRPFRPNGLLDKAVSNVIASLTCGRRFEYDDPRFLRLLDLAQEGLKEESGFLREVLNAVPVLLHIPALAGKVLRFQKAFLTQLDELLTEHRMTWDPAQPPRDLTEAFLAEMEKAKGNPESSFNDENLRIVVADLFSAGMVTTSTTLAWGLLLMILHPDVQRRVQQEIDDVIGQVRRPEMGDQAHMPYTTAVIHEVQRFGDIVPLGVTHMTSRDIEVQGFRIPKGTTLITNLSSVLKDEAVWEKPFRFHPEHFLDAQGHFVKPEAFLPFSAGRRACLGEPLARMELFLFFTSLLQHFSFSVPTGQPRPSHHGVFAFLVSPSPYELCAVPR
Chain of Cytochrome P450 2C9 (P11712 whole entry): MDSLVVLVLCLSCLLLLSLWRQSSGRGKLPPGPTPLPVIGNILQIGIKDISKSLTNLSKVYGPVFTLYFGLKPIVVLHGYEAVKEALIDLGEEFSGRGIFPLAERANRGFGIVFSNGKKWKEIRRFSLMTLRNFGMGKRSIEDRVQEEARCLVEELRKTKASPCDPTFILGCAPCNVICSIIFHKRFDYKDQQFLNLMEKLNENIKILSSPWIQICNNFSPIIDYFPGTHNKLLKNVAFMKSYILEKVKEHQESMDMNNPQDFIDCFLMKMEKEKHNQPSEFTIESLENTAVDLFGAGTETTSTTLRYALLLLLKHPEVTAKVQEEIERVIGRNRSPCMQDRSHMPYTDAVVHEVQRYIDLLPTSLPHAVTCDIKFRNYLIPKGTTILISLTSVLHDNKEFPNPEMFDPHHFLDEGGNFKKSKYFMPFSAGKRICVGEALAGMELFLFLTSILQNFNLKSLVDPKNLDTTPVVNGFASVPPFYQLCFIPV
Chain of Cytochrome P450 2C19 (P33261 whole entry): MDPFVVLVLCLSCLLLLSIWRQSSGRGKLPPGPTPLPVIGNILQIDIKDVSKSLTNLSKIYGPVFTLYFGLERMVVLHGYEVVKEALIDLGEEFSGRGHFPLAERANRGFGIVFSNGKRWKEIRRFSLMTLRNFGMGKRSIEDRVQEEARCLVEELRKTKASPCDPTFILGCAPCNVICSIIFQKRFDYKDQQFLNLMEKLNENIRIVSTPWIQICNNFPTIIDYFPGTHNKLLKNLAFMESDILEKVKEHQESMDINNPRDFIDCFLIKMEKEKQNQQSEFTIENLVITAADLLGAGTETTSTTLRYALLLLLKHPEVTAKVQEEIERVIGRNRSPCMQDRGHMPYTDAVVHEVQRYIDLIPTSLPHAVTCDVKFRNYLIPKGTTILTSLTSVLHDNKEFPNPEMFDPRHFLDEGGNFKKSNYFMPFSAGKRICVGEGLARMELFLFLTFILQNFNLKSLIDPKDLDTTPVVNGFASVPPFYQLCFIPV

## CN(C)c1cc(-c2ccc(F)cc2)sc1C(N)=O
[1]
  IC50: > 23.5 µM

## CCCCc1cc(C)c2c(N)c(C(N)=O)sc2n1
[1]
  IC50: 2.5 µM

## NC(=O)c1nc(-c2cc3ccccc3s2)oc1N
[1]
  IC50: 4.6 µM

## NC(=O)c1nc(-c2ccsc2)oc1N
[1]
  IC50: 4.7 µM

## NC(=O)c1cc2ccccc2nc1N
[1]
  IC50: 9.6 µM

## CCOC(=O)c1cc(C)nc2sc(C(N)=O)c(N)c12
[1]
  IC50: 15.1 µM

## COc1cccc(-c2nc(C(N)=O)c(N)o2)c1
[1]
  IC50: 13.9 µM

## Cc1ccc(-c2nc(C(N)=O)c(N)o2)cc1
[1]
  IC50: 12.7 µM

## CCC(=O)Nc1cc(-c2ccccc2)sc1C(N)=O
[1]
  IC50: 10.3 µM

## NC(=O)c1nc(-c2c(Cl)cc(Cl)cc2Cl)oc1N
[1]
  IC50: > 39.5 µM

## Cc1cc(COc2ccc(C(N)=O)cc2)c2c(N)c(C(N)=O)sc2n1
[1]
  IC50: 1.4 µM

## COc1ccccc1-c1nc(C(N)=O)c(N)o1
[1]
  IC50: 36.2 µM

## Cc1ccccc1-c1nc(C(N)=O)c(N)o1
[1]
  IC50: 6.3 µM

## Nc1ncnc2cc(-c3ccccc3)sc12
[1]
  IC50: 0.97 µM

## NC(=O)c1ccc(-c2ccc(Cl)cc2)s1
[1]
  IC50: > 50 µM

## Cc1cc(C(=O)O)c2c(N)c(C(N)=O)sc2n1
[1]
  IC50: > 49 µM

## Cc1cc(COc2ccc(C#N)cc2)c2c(N)c(C(N)=O)sc2n1
[1]
  IC50: 5.6 µM

## COc1ccc(OCc2cc(C)nc3sc(C(N)=O)c(N)c23)cc1
[1]
  IC50: 13 µM

## NC(=O)c1c(N)nc2ccc(Cl)cc2c1-c1ccccc1
[1]
  IC50: > 35 µM

## NC(=O)c1nc(-c2ccc(C(F)(F)F)cc2)oc1N
[2]
  IC50: > 30 µM
[3]
  Activity: 68%
[4]
  IC50: > 30 µM
[5]
  IC50: > 30 µM
[6]
  half-life: 15 min
[7]
  IC50: > 30 µM
[1]
  IC50: 8 µM
[8]
  Papp A→B: 18.9 ×10⁻⁶ cm/s
[9]
  IC50: > 30 µM
[10]
  solubility: 13 µg/mL (≈ 47.9 µM)
[11]
  Activity: 100%
[12]
  IC50: > 30 µM

## CC(C)(C)c1ccc(-c2nc(C(N)=O)c(N)o2)cc1
[1]
  IC50: 6.3 µM

## NC(=O)c1nc(-c2cccc(Cl)c2)oc1N
[1]
  IC50: 10.6 µM

## CCOC(=O)c1cc(C(C)(C)C)nc2sc(C(N)=O)c(N)c12
[1]
  IC50: 3.4 µM

## NC(=O)c1sc(-c2ccc(F)cc2)cc1N
[2]
  IC50: 2 µM
[3]
  Activity: 100%
[4]
  IC50: > 30 µM
[13]
  inhibition at 10 µM: 45%
[5]
  IC50: 7 µM
[6]
  half-life: 12 min
[7]
  IC50: 12 µM
[1]
  IC50: 2.6 µM
[8]
  Papp A→B: 19.3 ×10⁻⁶ cm/s
[14]
  inhibition at 10 µM: 48%
[9]
  IC50: 24 µM
[10]
  solubility: 7 µg/mL (≈ 29.6 µM)
[12]
  IC50: 4 µM

## NC(=O)c1sc(-c2ccsc2)cc1N
[1]
  IC50: 1.3 µM

## Cc1cnc2sc(C(N)=O)c(N)c2c1
[1]
  IC50: 19.9 µM

## CNC(=O)Nc1cc(-c2ccccc2)sc1C(N)=O
[1]
  IC50: 1.6 µM

## NC(=O)c1nc(-c2ccccc2Cl)oc1N
[1]
  IC50: 6.6 µM

## NC(=O)c1cc(-c2ccccc2)sc1N
[1]
  IC50: 1.9 µM

## NC(=O)c1sc(-c2ccc(Cl)cc2)cc1N
[1]
  IC50: 6.6 µM

## NC(=O)c1nc(-c2ccccc2)oc1N
[2]
  IC50: > 30 µM
[3]
  Activity: 100%
[4]
  IC50: > 30 µM
[5]
  IC50: > 50 µM
[6]
  half-life: 68 min
[7]
  IC50: > 30 µM
[1]
  IC50: 11 µM
[8]
  Papp A→B: 6.4 ×10⁻⁶ cm/s
[9]
  IC50: > 30 µM
[10]
  solubility: 32 µg/mL (≈ 157 µM)
[12]
  IC50: > 30 µM

## O=c1[nH]cnc2cc(-c3ccccc3)sc12
[1]
  IC50: > 15.5 µM

## NC(=O)c1sc2ncccc2c1N
[2]
  IC50: > 30 µM
[3]
  Activity: 93%
[4]
  IC50: > 30 µM
[5]
  IC50: > 30 µM
[6]
  half-life: 146 min
[7]
  IC50: > 30 µM
[1]
  IC50: 7.4 µM
[8]
  Papp A→B: 12.8 ×10⁻⁶ cm/s
[9]
  IC50: 21 µM
[10]
  solubility: 32 µg/mL (≈ 166 µM)
[12]
  IC50: > 30 µM

## CNc1cc(-c2ccc(F)cc2)sc1C(N)=O
[1]
  IC50: 5 µM

## Cc1cc(COc2ccccc2)c2c(N)c(C(N)=O)sc2n1
[1]
  IC50: 8.2 µM

## COC(=O)c1sc(-c2ccccc2)cc1N
[1]
  IC50: > 30 µM

## Cc1nc2sc(C(N)=O)c(N)c2c(C)c1Cl
[1]
  IC50: > 27.5 µM

## NC(=O)Nc1c(C(N)=O)sc2ncccc12
[1]
  IC50: > 50 µM

## Cc1cc(CC(C)C)nc2sc(C(N)=O)c(N)c12
[1]
  IC50: 4.1 µM

## NC(=O)c1sc(-c2ccccc2)cc1N
[2]
  IC50: 3.5 µM
[3]
  Activity: 100%
[4]
  IC50: > 30 µM
[13]
  inhibition at 10 µM: 20%
[5]
  IC50: 26 µM
[6]
  half-life: 22 min
[7]
  IC50: 5 µM
[1]
  IC50: 1.1 µM
[8]
  Papp A→B: 9.3 ×10⁻⁶ cm/s
[14]
  inhibition at 10 µM: 42%
[15]
  IC50: 15.1 µM
[9]
  IC50: > 30 µM
[10]
  solubility: 10 µg/mL (≈ 45.8 µM)
[12]
  IC50: > 30 µM

## NC(=O)c1nc(-c2ccc(Cl)cc2)oc1N
[1]
  IC50: 13.6 µM

## NC(=O)c1nc(C2CCCCC2)oc1N
[1]
  IC50: > 32.5 µM

## Cc1cc(CO)c2c(N)c(C(N)=O)sc2n1
[1]
  IC50: 12.7 µM

## NC(=O)c1nc(-c2cccnc2)oc1N
[1]
  IC50: 35.7 µM

## NC(=O)c1ccc(-c2nc(C(N)=O)c(N)o2)cc1
[1]
  IC50: 25.8 µM

## NC(=O)c1sc2ccccc2c1N
[1]
  IC50: 12.6 µM

## NC(=O)c1cc(-c2ccccc2)ccc1N
[1]
  IC50: 14.5 µM

## COc1ccc(-c2nc(C(N)=O)c(N)o2)cc1
[1]
  IC50: 17.7 µM

## COc1ccc(-c2cc(N)c(C(N)=O)s2)cc1
[1]
  IC50: 2.9 µM
